Results from EP4696306A1, “ADENOSINE TRIPHOSPHATE SECRETION INHIBITOR, HEPATIC STELLATE CELL ACTIVATION INHIBITOR, HEPATIC STELLATE CELL DEACTIVATOR, HEPATIC FIBROSIS THERAPEUTIC AGENT, NON-ALCOHOLIC STEATOHEPATITIS THERAPEUTIC AGENT, PSORIASIS THERAPEUTIC AGENT, AND USE OF COMPOUND FOR PRODUCING ADENOSINE TRIPHOSPHATE …” (KURUME UNIVERSITY, priority 2023, dated 2024).

Key:
[1] = tested on: human epidermal keratinocytes; experiment: LPS-stimulated ATP secretion in keratinocytes; format: cell-based; conditions: 18 hours incubation, LPS 10 µg/ml 10 minutes, N = 8
Procedure: Keratinocytes were cultured in the same manner as in Example 1. Keratinocytes were cultured at 2.5 × 10^4 cells/well in a 24-well plate at 37°C in 5% CO2 for 4 days. The medium was replaced with a test solution (Hanks' balanced salt solution (HBSS) (manufactured by Gibco) supplemented with imeglimin, metformin, or clodronate), and then incubation was performed at 37°C in 5% CO2 for 18 hours. Thereafter, LPS (10 µg/ml) was added thereto, and incubation was further carried out for 10 minutes, followed by collection of 200 µl of the supernatant. The supernatant was immediately treated on a heat block at 95°C for 10 minutes, and ATP in the supernatant was quantified using an ATP Assay Kit - Luminescence (manufactured by Dojindo) (N = 8).

[2] = tested on: Thioacetamide-induced hepatic fibrosis; experiment: Thioacetamide-induced hepatic fibrosis in mice; format: in vivo
Procedure: Wild-type mice, […] (manufactured by Charles River Japan), were housed on a 12-hour light/dark cycle and fed a standard solid diet (5.4% fat, CRF-1, manufactured by Oriental Yeast Co., Ltd.) ad libitum. Thioacetamide (TAA, manufactured by FUJIFILM Wako Pure Chemical Corporation) was dissolved in physiological saline at 0.9% w/v. Eight-week-old mice were randomly assigned to three groups and continuously treated for 9 weeks according to the following scheme. At Week 9, all mice were euthanized 1 hour after administration of physiological saline or IMG.
Normal control group (N = 6): Physiological saline was intraperitoneally administered to mice three times per week. Eight hours after each administration, a vehicle was orally administered to the mice.
TAA group (N = 6): TAA(50 mg/kg, intraperitoneal) was administered to mice. Eight hours thereafter, physiological saline was orally administered to the mice. This treatment was performed three times per week for a total of 9 weeks.
TAA + IMG group (N = 6): During the first week, physiological saline was orally administered to mice. Thereafter, imeglimin (IMG) at 200 mg/kg was orally administered three times per week for 8 weeks. The administration of IMG was performed 8 hours after intraperitoneal administration of TAA (50 mg/kg).
For immunohistochemical analysis, liver samples were fixed in 4% paraformaldehyde, embedded in paraffin, and then sectioned. The sections were stained with HE or PSR. In addition, the paraffin-embedded sections were subjected to immunostaining using an α-SMA monoclonal antibody (1:500, catalog No. A5228, manufactured by Sigma-Aldrich) and an F4/80 monoclonal antibody (1:200, catalog No. MCA497GA, manufactured by AbD Serotec). The cell specimens were observed using a microscope (BZ-X700 series, manufactured by Keyence) or a confocal laser microscope (FV1000, manufactured by Olympus Corporation). The number of F4/80-positive cells was counted in four high-power fields per section. The α-SMA-positive area and the PSR-positive area were quantified using the image analysis software Fiji-ImageJ (1.54f).
A histological score was determined by a blinded investigator using the NAFLD histological scoring system of the Nonalcoholic Steatohepatitis Clinical Research Network. The total NAFLD activity score (NAS) was calculated from the total of the individual scores for steatosis ([…]), lobular inflammation (F4/80), and hepatocyte ballooning. The range of each parameter was 0 to 2 (ballooning) or 3 (the other two scores), where 0 indicates normal and 2 or 3 indicates severe. Staging of fibrosis was based on the NASH fibrosis stages, and a fibrosis stage ranging from 0 to 4 was determined according to Reference H (David E. Kleiner et al., 2005, Design and validation of a histological scoring system for nonalcoholic fatty liver disease, Hepatology, 41, 1313-1321).
All results are expressed as the mean ± standard error of the mean (S.E.M.). Statistical analyses were performed using GraphPad Prism 7.0 (GraphPad Software). Significance upon comparison between two groups was evaluated by an unpaired two-tailed Student's t-test. An unpaired two-tailed Student's t-test was used. Statistical significance among three or more groups was determined by two-way analysis of variance (ANOVA) with Tukey's or Dunnett's post hoc test. Coloc2 was used to perform image analysis, automatic thresholding, and pixel intensity correlation for statistical processing. Statistical significance was assumed when the P value was < 0.05.
In accordance with Example 15, immunostaining of α-SMA in liver sections and observation by fluorescence microscopy were performed for the normal control group, the TAA group, and the TAA + IMG group, and for a TAA + Clo group, which was treated in the same manner as the TAA + IMG group except that clodronate, instead of imeglimin, was administered at 30 mg/kg by blending it in the drinking water from 1 week after the start of TAA administration. […]

[3] = imeglimin 200 mg/kg orally three times per week for 8 weeks

| SMILES | ATP secretion upon LPS stimulation ([1]; 10 µM) | α-SMA-positive reaction in liver, increase by TAA ([2]; clodronate 30 mg/kg in the drinking water, immunostaining) | α-SMA-positive area fraction ([2]; clodronate 30 mg/kg in the drinking water, normal control 0.14 ± 0.01, TAA group 2.79 ± 0.33, four measurements per group) | ATP secretion upon LPS stimulation ([1]; 1 µM) | α-SMA in liver sections (immunostaining and fluorescence microscopy) ([2]; imeglimin 200 mg/kg orally) | α-SMA-positive reaction by Western blotting of liver tissue, increase due to TAA ([2]; imeglimin 200 mg/kg orally) | fibrosis score, increase by TAA [2, 3] | liver histology (HE staining) [2, 3] | positive reaction of F4/80-positive macrophages, increase by TAA [2, 3] | α-SMA-positive reaction (activation of hepatic stellate cells), increase by TAA [2, 3] | PSR staining-positive area (collagen fibers) ([2]; imeglimin 200 mg/kg orally three times per week for 8 weeks, versus TAA group) |
| --- | --- | --- | --- | --- | --- | --- | --- | --- | --- | --- | --- |
| O=P(O)(O)C(Cl)(Cl)P(=O)(O)O [clodronate] | almost completely inhibited | markedly suppressed | 0.71 ± 0.10 | – | – | – | – | – | – | – | – |
| C[C@H]1N=C(N(C)C)N=C(N)N1 [imeglimin] | almost completely inhibited | – | – | almost completely inhibited | effect similar to that of clodronate | markedly suppressed | suppressed | reduced destruction of the lobular structure, hepatocyte ballooning, and inflammatory cell infiltration | strongly suppressed | strongly suppressed | significantly reduced |
